For orientation: EC50 means the concentration needed to bring the measured effect to its halfway point. Low readings indicate an effect from little substance, high ones a need for much substance.

The record followed here is patent US10287253B2, “Substituted pyrimidines containing acidic groups as TLR7 modulators” (Apros Therapeutics, Inc., priority 2016, dated 2019).

Some results are limits rather than exact numbers.

Data set [1] is described as follows: Pharmacokinetics experiments: mouse liver-to-serum concentration (L:S). Format: in vivo. The settings on record: BALB/c mice, 10 mg/kg p.o., 5 hour post dose. Here is the method: BALB/c mice were dosed p.o. with 10 mg/kg compound formulated in 0.5% carboxy methycellulose+0.5% Tween-80 suspension. Mice were bled retro-orbitally at different time points post dose. Blood was processed into serum by centrifugation followed by protein precipitation, reverse-phase gradient elution and MRM detection via ESI+mass spectrometry to determine compound concentration. Animals were sacrificed after the final blood collection (5 hour), liver removed and flash frozen in liquid nitrogen for tissue PK analyses. The liver-to-serum concentration (L:S) at 5 hour post dose is one parameter for identifying compounds with potential enrichment in liver.
Mouse liver-to-serum concentration (L:S) table below provides results.

The target of the next data set is human TLR7 (hTLR7) (Homo sapiens (Human), UniProt Q9NYK1). The data set is described as follows: HEK TLR7 assay (HEK-Blue hTLR7 cells, NF-kB/AP-1 SEAP reporter). It is filed as cell-based. The note with it: HEK-Blue hTLR7 cells, 16 h incubation, SEAP read at 620-655 nm. The source says: HEK-Blue™ TLR7 cells were purchased from Invivogen (San Diego, Calif.). The following description was taken from the product information sheet.
“HEK-Blue™ hTLR7 cells are designed for studying the stimulation of human TLR7 (hTLR7) by monitoring the activation of NF-kB. HEK-Blue™ hTLR7 cells were obtained by co-transfection of the hTLR7 gene and an optimized secreted embryonic alkaline phosphatase (SEAP) reporter gene into HEK293 cells. The SEAP reporter gene is placed under the control of the IFN-b minimal promoter fused to five NF-kB and AP-1-binding sites. Stimulation with a TLR7 ligand activates NF-kB and AP-1 which induce the production of SEAP, which is detected by the HEK-Blue™ Detection cell culture medium.”
A typical assay protocol involved the following steps: • 1. Cells were cultured according to the product information sheet. • 2. 10 mM compound stock in DMSO were first diluted to 3 mM and then 3-fold serially diluted using DMSO to afford a 10-pt dilution. • 3. 3 μl of the diluted DMSO were added to 57 μl HEK-Blue™ Detection media for a further 20-fold dilution. • 4. 10 μl of the diluted compound in assay media were added into 40 μl cell culture (in HEK-Blue™ Detection media) in 384-well plate. Final cell concentration=8,000 cells per well. • 5. The plates were incubated at 37° C. in 5% CO2 for 16 h. SEAP was determined using a spectrophotometer at 620-655 nm.

Chain of human TLR7 (hTLR7) (Q9NYK1 27-1049): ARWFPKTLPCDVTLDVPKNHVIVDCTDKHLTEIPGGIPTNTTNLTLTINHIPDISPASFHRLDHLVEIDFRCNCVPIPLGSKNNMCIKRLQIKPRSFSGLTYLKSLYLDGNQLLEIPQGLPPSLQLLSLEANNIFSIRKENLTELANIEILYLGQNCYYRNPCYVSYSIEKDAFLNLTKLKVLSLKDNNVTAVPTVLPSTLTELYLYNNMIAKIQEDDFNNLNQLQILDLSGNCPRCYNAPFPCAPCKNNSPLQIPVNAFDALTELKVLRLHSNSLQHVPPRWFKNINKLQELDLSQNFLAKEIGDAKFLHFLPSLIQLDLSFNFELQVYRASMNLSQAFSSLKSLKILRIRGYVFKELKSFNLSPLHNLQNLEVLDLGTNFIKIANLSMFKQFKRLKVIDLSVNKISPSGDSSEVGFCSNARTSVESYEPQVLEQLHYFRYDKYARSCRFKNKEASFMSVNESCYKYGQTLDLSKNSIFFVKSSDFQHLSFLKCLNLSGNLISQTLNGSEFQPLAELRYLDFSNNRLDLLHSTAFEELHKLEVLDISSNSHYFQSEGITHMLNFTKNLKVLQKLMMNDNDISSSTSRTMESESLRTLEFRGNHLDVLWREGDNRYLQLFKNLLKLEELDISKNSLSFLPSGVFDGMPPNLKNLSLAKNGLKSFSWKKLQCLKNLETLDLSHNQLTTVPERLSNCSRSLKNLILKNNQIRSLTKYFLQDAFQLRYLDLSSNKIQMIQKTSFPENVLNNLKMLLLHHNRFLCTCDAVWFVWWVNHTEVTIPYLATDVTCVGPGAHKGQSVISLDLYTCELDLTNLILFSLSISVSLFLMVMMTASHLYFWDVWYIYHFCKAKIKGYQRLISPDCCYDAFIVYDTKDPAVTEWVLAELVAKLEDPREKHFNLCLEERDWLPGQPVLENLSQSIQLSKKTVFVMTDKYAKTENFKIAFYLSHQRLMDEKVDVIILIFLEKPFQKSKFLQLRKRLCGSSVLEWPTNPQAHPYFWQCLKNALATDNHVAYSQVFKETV

On to `CCCCNc1nc(N)nc(C)c1Cc1cc(C(=O)NCCCP(=O)(O)O)ccc1OC` [Compound 30, (3-(3-((2-amino-4-(butylamino)-6-methylpyrimidin-5-yl)methyl)-4-methoxybenzamido)propyl)phosphonic acid], for which the “L:S at 5 hr (liver-to-serum concentration)” value (from here on “L:S at 5 hr”) in data set [1] is on record as “A (A = >100 represents high liver-enrichment)”. At human TLR7 (hTLR7), the EC50 was 100 to 1000 nM.
Take `CCCC[C@@H](CCOC)Nc1nc(N)nc(C)c1Cc1cc(Cc2nn[nH]n2)ccc1OC` [Compound 32, (S)-5-(5-((2H-tetrazol-5-yl)methyl)-2-methoxybenzyl)-N^4-(1-methoxyheptan-3-yl)-6-methylpyrimidine-2,4-diamine]: in data set [1], the “L:S at 5 hr” value was “A (A = >100 represents high liver-enrichment)”. On human TLR7 (hTLR7), the EC50 was under 100 nM.
Turning to `CCCC[C@@H](CCSC)Nc1nc(N)nc(C)c1Cc1cc(C(C)(C)C(=O)O)ccc1OC` [Compound 33, (S)-2-(3-((2-amino-4-methyl-6-((1-(methylthio)heptan-3-yl)amino)pyrimidin-5-yl)methyl)-4-methoxyphenyl)-2-methylpropanoic acid], the “L:S at 5 hr” value in data set [1] is “A (A = >100 represents high liver-enrichment)”. At human TLR7 (hTLR7), the EC50 is under 100 nM.
`CCCC[C@@H](CCSC)Nc1nc(N)nc(C)c1Cc1cc(-c2nn[nH]n2)ccc1OC` [Compound 34, (S)-5-(2-methoxy-5-(2H-tetrazol-5-yl)benzyl)-6-methyl-N^4-(1-(methylthio)heptan-3-yl)pyrimidine-2,4-diamine]: the “L:S at 5 hr” value in data set [1] was “A (A = >100 represents high liver-enrichment)”. The EC50 on human TLR7 (hTLR7) is under 100 nM.
For `CCCCNc1nc(N)nc(CCC(=O)O)c1Cc1cc(Cc2nn[nH]n2)ccc1OC` [Compound 40, 3-(5-(5-((2H-tetrazol-5-yl)methyl)-2-methoxybenzyl)-2-amino-6-(butylamino)pyrimidin-4-yl)propanoic acid] the same measures were “A (A = >100 represents high liver-enrichment)” and 100 to 1000 nM.
For `CCCC[C@@H](CC(=O)O)Nc1nc(N)nc(C)c1Cc1ccccc1OC` [Compound 41, (S)-3-((2-amino-5-(2-methoxybenzyl)-6-methylpyrimidin-4-yl)amino)heptanoic acid] the same measures were “B (B = 10-100 represents moderate liver-enrichment)” and 100 to 1000 nM.
The like results for `CCCC[C@@H](CC(=O)O)Nc1nc(N)nc(C)c1Cc1cc(C(C)(C)C(=O)O)ccc1OC` [Compound 42, (S)-3-((2-amino-5-(5-(2-carboxypropan-2-yl)-2-methoxybenzyl)-6-methylpyrimidin-4-yl)amino)heptanoic acid] were, in that order, “A (A = >100 represents high liver-enrichment)” and 100 to 1000 nM.
As to `CCCCNc1nc(N)nc(CCC(=O)O)c1Cc1cc(C(C)(C)C(=O)O)ccc1OC` [Compound 43, 2-(3-((2-amino-4-(butylamino)-6-(2-carboxyethyl)pyrimidin-5-yl)methyl)-4-methoxy-phenyl)-2-methylpropanoic acid], the “L:S at 5 hr” value in data set [1] is recorded as “A (A = >100 represents high liver-enrichment)”. The EC50 at human TLR7 (hTLR7) lay in the range of 1000 to 10000 nM.
For `CCCC[C@@H](CC(=O)O)Nc1nc(N)nc(C)c1Cc1cc(C(=O)NCCCP(=O)(O)O)ccc1OC` [Compound 44, (S)-3-((2-amino-5-(2-methoxy-S-((3-phosphonopropyl)carbamoyl)benzyl)-6-methyl-pyrimidin-4-yl)amino)heptanoic acid], in data set [1], the “L:S at 5 hr” value is “B (B = 10-100 represents moderate liver-enrichment)”. Besides, at human TLR7 (hTLR7), the concentration giving a half-maximal response (EC50) was 100 to 1000 nM.
The like results for `CCCC[C@@H](CC(=O)O)Nc1nc(N)nc(CCC(=O)O)c1Cc1cc(C(C)(C)C(=O)O)ccc1OC` [Compound 45, (S)-3-((2-amino-6-(2-carboxyethyl)-5-(5-(2-carboxypropan-2-yl)-2-methoxy-benzyl)pyrimidin-4-yl)amino)heptanoic acid] were, in that order, “A (A = >100 represents high liver-enrichment)” and 1000 to 10000 nM.
The like results for `CCCC[C@@H](CC(=O)O)Nc1nc(N)nc(CCC(=O)O)c1Cc1cc(Cc2nn[nH]n2)ccc1OC` [Compound 46, (S)-3-((5-(5-((2H-tetrazol-5-yl)methyl)-2-methoxybenzyl)-2-amino-6-(2-carboxyethyl)-pyrimidin-4-yl)amino)heptanoic acid] were, in that order, “B (B = 10-100 represents moderate liver-enrichment)” and 100 to 1000 nM.
